# Read-outs that look alike come from different tables or passages of the source. Residues, ends and D or L forms follow the SMILES beside them. No end group written: not given here. *: point of attachment. Stearoyl = CCCCCCCCCCCCCCCCCC(=O)*
# Key:
# [1] = system: influenza virus A/Aichi/2/68 strain (H3N2)
# [2] = system: influenza virus A/Puerto Rico/8/34 strain (H1N1)
# [3] = system: hemagglutinin (immobilized H3N2); assay: Biacore binding of synthetic peptides to H3N2 immobilized on Sensor Chip CM5; design: species or system influenza virus type A A/Wuhan/359/95 (H3N2); conditions: for order of binding strength to hemagglutinin: Biacore; for relative value of resonance (amount of binding) with A-1 taken as 1: peptide concentration 200 μM
# [4] = target: hemagglutinin (HA), ether extract of type A subtype H1 A/PR/8/34 (H1N1) (Influenza A virus, UniProt P03452)
# [5] = system: hemagglutinin (HA), ether extract of type A subtype H3 A/Wuhan/359/95 (H3N2); assay: Phage ELISA, binding of peptide-presenting phages to immobilized hemagglutinin (H3N2); design: species or system influenza virus type A A/Wuhan/359/95 (H3N2)
# [6] = target: binding of hemagglutinin (H3) to GM3; assay: ELISA inhibition of GM3-hemagglutinin interaction using GM3 cast membrane; design: species or system influenza virus
# Description: Inhibition of the interaction between GM3 and hemagglutinin (HA) was evaluated by ELISA using the GM3 cast membrane (Kazuhiro Nagata and Hiroshi Handa, “Seibutsu Busshitsu Sogosayo no Real-time Kaiseki Jikkenho—BIACORE wo Chushin Ni (Real-time Analysis Experimental Procedures on Biological Substance Interaction—Focusing on BIOCORE), Springer-Verlag Inc., Tokyo, 1998)”). […] In addition, it has been reported from an evaluation by NMR that the binding constant between hemagglutinin and free sialyl lactose is in the order of mM (e.g. α (2, 3)-sialyllactose K0=3.2 mM). Therefore, the results presented in this Example were largely consistent with the inhibition constant of the peptides reported by Inoue. Moreover, the results presented in this Example are in the same order of magnitude as, or one order smaller than, the inhibition constant of A-1 or the binding constant obtained with sialyl lactose.
# [7] = influenza virus A/Aichi/2/68 strain
# [8] = influenza virus A/Puerto Rico/8/34 strain
# [9] = read-out: IC50(μM) H3, Table 4, MDCK cells, plaque assay, H3N2
# [10] = read-out: IC50(μM) H1, Table 4, MDCK cells, plaque assay, H1N1
# Sequence of hemagglutinin (HA), ether extract of type A subtype H1 A/PR/8/34 (H1N1) (P03452 18-565): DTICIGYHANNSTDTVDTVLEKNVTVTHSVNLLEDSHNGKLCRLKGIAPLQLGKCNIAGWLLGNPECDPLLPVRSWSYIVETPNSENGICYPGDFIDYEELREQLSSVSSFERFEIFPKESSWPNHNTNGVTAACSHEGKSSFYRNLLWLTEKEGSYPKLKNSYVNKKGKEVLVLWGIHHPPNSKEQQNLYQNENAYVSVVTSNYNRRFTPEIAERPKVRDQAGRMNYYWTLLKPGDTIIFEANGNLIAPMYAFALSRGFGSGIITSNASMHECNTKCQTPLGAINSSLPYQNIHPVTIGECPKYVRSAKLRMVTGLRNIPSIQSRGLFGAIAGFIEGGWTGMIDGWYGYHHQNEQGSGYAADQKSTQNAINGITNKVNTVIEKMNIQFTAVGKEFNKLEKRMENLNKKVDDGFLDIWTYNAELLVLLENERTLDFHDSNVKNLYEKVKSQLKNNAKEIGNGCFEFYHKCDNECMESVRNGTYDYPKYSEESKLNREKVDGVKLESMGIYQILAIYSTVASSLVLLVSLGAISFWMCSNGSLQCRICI
Molecule,"IC50 [1, 7] [µM]","IC50 [2, 8] [µM]","inhibition of H3N2 influenza virus infection (in words) ([1]; MDCK cells, plaque assay)","inhibition of H1N1 influenza virus infection (in words) ([2]; MDCK cells, plaque assay)",further results
"CCCCCCCCCCCCCCCCCC(=O)N[C@@H](CCCNC(=N)N)C(=O)N[C@H](C(=O)N[C@@H](CCSC)C(=O)N[C@H](C(=O)N[C@@H](Cc1c[nH]cn1)C(=O)N1CCC[C@H]1C(=O)N[C@@H](CCCCN)C(N)=O)C(C)C)[C@@H](C)O [C18-s2(5-11), C18-RTMVHPK] (Stearoyl-RTMVHPK-NH2)",> 100,11,,,
"CCCCCCCCCCCCCCCCCC(=O)N[C@@H](C)C(=O)N[C@@H](CCCNC(=N)N)C(=O)N[C@@H](CC(C)C)C(=O)N1CCC[C@H]1C(=O)N[C@@H](CCCNC(=N)N)C(=O)N[C@H](C(=O)N[C@@H](CCSC)C(N)=O)[C@@H](C)O [C18-s2(1-7), C18-ARLPRTM] (Stearoyl-ARLPRTM-NH2)",,,"as strongly as, or more strongly than, C18-S2 peptide",more strongly than C18-S2 peptide,"IC50 [1, 9]: 9.1 µM; IC50 [2, 10]: 7.1 µM"
ARLPPTMVRPNGPQP-NH2 [e-1],,,,,order of binding strength to hemagglutinin [3]: s-2>e-1>A-1>pVIII; relative value of resonance (amount of binding) with A-1 taken as 1 [3]: 1.2 fold
"CCCCCCCCCCCCCCCCCC(=O)N[C@@H](CCCNC(=N)N)C(=O)N[C@@H](CC(C)C)C(=O)N1CCC[C@H]1C(=O)N[C@@H](CCCNC(=N)N)C(=O)N[C@H](C(=O)N[C@@H](CCSC)C(=O)N[C@H](C(N)=O)C(C)C)[C@@H](C)O [C18-s2(2-8), C18-RLPRTMV] (Stearoyl-RLPRTMV-NH2)",,,,"as strongly as, or more strongly than, C18-S2 peptide","IC50 [1, 9]: > 100 µM; IC50 [2, 10]: 9.2 µM"
ARLPRTMVHPKPAQP-NH2 [s-2],,,,,binding activity to hemagglutinin relative to A-1 (A-1 taken as 1) [4]: about 3 fold; binding activity to hemagglutinin relative to A-1 (A-1 taken as 1) [5]: about 3 fold; order of binding strength to hemagglutinin [3]: s-2>e-1>A-1>pVIII; relative value of resonance (amount of binding) with A-1 taken as 1 [3]: 2.1 fold
"CCCCCCCCCCCCCCCCCC(=O)N[C@@H](C)C(=O)N[C@@H](CCCNC(=N)N)C(=O)N[C@@H](CC(C)C)C(=O)N[C@@H](CO)C(=O)N1CCC[C@H]1C(=O)N[C@H](C(=O)N[C@@H](CCSC)C(=O)N[C@H](C(=O)N[C@@H](Cc1c[nH]cn1)C(=O)N1CCC[C@H]1C(=O)N[C@@H](CC(N)=O)C(=O)NCC(=O)N[C@@H](C)C(=O)N[C@@H](CCC(N)=O)C(=O)N1CCC[C@H]1C(N)=O)C(C)C)[C@@H](C)O [C18-A1, C18-ARLSPTMVHPNGAQP, reference compound] (Stearoyl-ARLSPTMVHPNGAQP-NH2)",365,195,,,
"CCCCCCCCCCCCCCCCCC(=O)N[C@H](C(=O)N[C@@H](Cc1c[nH]cn1)C(=O)N1CCC[C@H]1C(=O)N[C@@H](CCCCN)C(=O)N1CCC[C@H]1C(=O)N[C@@H](C)C(=O)N[C@@H](CCC(N)=O)C(=O)N1CCC[C@H]1C(N)=O)C(C)C [C18-s2(8-15), C18-VHPKPAQP] (Stearoyl-VHPKPAQP-NH2)",10.5,59,,,
"CCCCCCCCCCCCCCCCCC(=O)N[C@@H](C)C(=O)N[C@@H](CCCNC(=N)N)C(=O)N[C@@H](CC(C)C)C(=O)N1CCC[C@H]1C(=O)N[C@@H](CCCNC(=N)N)C(=O)N[C@H](C(N)=O)[C@@H](C)O [C18-s2(1-6), C18-ARLPRT] (Stearoyl-ARLPRT-NH2)",,,"as strongly as, or more strongly than, C18-S2 peptide",more strongly than C18-S2 peptide,"IC50 [1, 9]: 5 µM; IC50 [2, 10]: 3.5 µM"
"CCCCCCCCCCCCCCCCCC(=O)N[C@@H](C)C(=O)N[C@@H](CCCNC(=N)N)C(=O)N[C@@H](CC(C)C)C(=O)N1CCC[C@H]1C(=O)N[C@@H](CCCNC(=N)N)C(N)=O [C18-s2(1-5), C18-ARLPR] (Stearoyl-ARLPR-NH2)",,,"as strongly as, or more strongly than, C18-S2 peptide",more strongly than C18-S2 peptide,"IC50 [1, 9]: 3 µM; IC50 ([1]; read-out: IC50(μM) H3, Table 5, MDCK cells, plaque assay, H3N2): 1.55 µM; IC50 [2, 10]: 3.1 µM; IC50 ([2]; read-out: IC50(μM) H1, Table 5, MDCK cells, plaque assay, H1N1): 0.35 µM"
"CCCCCCCCCCCCCCCCCC(=O)N[C@@H](CCCNC(=N)N)C(=O)N1CCC[C@H]1C(=O)N[C@@H](CC(C)C)C(=O)N[C@@H](CCCNC(=N)N)C(=O)N[C@@H](C)C(N)=O [C18-s2(r1-5), C18-RPLRA] (Stearoyl-RPLRA-NH2)",0.94,0.55,more strongly than C18-s2 (r1-8),more strongly than C18-s2 (r1-8),
"CCCCCCCCCCCCCCCCCC(=O)N[C@@H](C)C(=O)N[C@@H](CCCNC(=N)N)C(=O)N[C@@H](CC(C)C)C(=O)N1CCC[C@H]1C(N)=O [C18-s2(1-4), C18-ARLP] (Stearoyl-ARLP-NH2)",21,0.9,"as strongly as, or more strongly than, C18-S2 peptide",more strongly than C18-S2 peptide,
"CCCCCCCCCCCCCCCCCC(=O)N1CCC[C@H]1C(=O)N[C@@H](CCCNC(=N)N)C(=O)N[C@H](C(=O)N[C@@H](CCSC)C(=O)N[C@H](C(N)=O)C(C)C)[C@@H](C)O [C18-s2(4-8), C18-PRTMV] (Stearoyl-PRTMV-NH2)",,> 100,,,
"CCCCCCCCCCCCCCCCCC(=O)N[C@@H](C)C(=O)N[C@@H](CCCNC(=N)N)C(N)=O [C18-s2(1-2), C18-AR] (Stearoyl-Ala-Arg-NH2)",,,unable to inhibit infection,unable to inhibit infection,"IC50 [1, 9]: > 100 µM; IC50 [2, 10]: > 100 µM"
"AEGDDPAKAAFDSLQ-NH2 [pVIII, reference compound]",,,,,order of binding strength to hemagglutinin [3]: s-2>e-1>A-1>pVIII
"CCCCCCCCCCCCCCCCCC(=O)N[C@@H](C)C(=O)N[C@@H](CCCNC(=N)N)C(=O)N[C@@H](CC(C)C)C(=O)N1CCC[C@H]1C(=O)N[C@@H](CCCNC(=N)N)C(=O)N[C@H](C(=O)N[C@@H](CCSC)C(=O)N[C@H](C(N)=O)C(C)C)[C@@H](C)O [C18-s2(1-8), C18-ARLPRTMV] (Stearoyl-ARLPRTMV-NH2)",,,"as strongly as, or more strongly than, C18-S2 peptide",more strongly than C18-S2 peptide,"IC50 [1, 9]: 1.4 µM; IC50 [2, 10]: 2.4 µM"
"CCCCCCCCCCCCCCCCCC(=O)N1CCC[C@H]1C(=O)N[C@@H](CC(C)C)C(=O)N[C@@H](CCCNC(=N)N)C(=O)N[C@@H](C)C(N)=O [C18-s2(r1-4), C18-PLRA] (Stearoyl-PLRA-NH2)",14,0.41,more strongly than C18-s2 (r1-8),more strongly than C18-s2 (r1-8),
"CCCCCCCCCCCCCCCCCC(=O)N[C@@H](C)C(=O)N[C@@H](CCCNC(=N)N)C(=O)N[C@@H](CC(C)C)C(=O)N[C@@H](C)C(N)=O [C18-s2(1-4)P4A, C18-ARLA] (Stearoyl-ARLA-NH2)",> 100,> 100,,,
"CCCCCCCCCCCCCCCCCC(=O)N[C@@H](C)C(=O)N[C@@H](CCCNC(=N)N)C(=O)N[C@@H](CC(C)C)C(=O)N1CCC[C@H]1C(=O)N[C@@H](CCCNC(=N)N)C(=O)N[C@H](C(=O)N[C@@H](CCSC)C(=O)N[C@H](C(=O)N[C@@H](Cc1c[nH]cn1)C(=O)N1CCC[C@H]1C(=O)N[C@@H](CCCCN)C(=O)N1CCC[C@H]1C(=O)N[C@@H](C)C(=O)N[C@@H](CCC(N)=O)C(=O)N1CCC[C@H]1C(N)=O)C(C)C)[C@@H](C)O [C18-s2, C18-ARLPRTMVHPKPAQP] (Stearoyl-ARLPRTMVHPKPAQP-NH2)",8.2,10,,,
"ARLSPTMVHPNGAQP [A-1, ARLSPTMVHPNGAQP-NH2, reference compound]",,,,,order of binding strength to hemagglutinin [3]: s-2>e-1>A-1>pVIII; IC50 [6]: 1900 µM
"CCCCCCCCCCCCCCCCCC(=O)N[C@@H](CC(C)C)C(=O)N1CCC[C@H]1C(=O)N[C@@H](CCCNC(=N)N)C(=O)N[C@H](C(=O)N[C@@H](CCSC)C(=O)N[C@H](C(N)=O)C(C)C)[C@@H](C)O [C18-s2(3-8), C18-LPRTMV] (Stearoyl-LPRTMV-NH2)",,> 100,,,
"CCCCCCCCCCCCCCCCCC(=O)N[C@@H](C)C(=O)N[C@@H](CCCNC(=N)N)C(=O)N[C@@H](CC(C)C)C(N)=O [C18-s2(1-3), C18-ARL]",> 100,> 100,unable to inhibit infection,unable to inhibit infection,
"CCCCCCCCCCCCCCCCCC(=O)N[C@H](C(=O)N[C@@H](CCSC)C(=O)N[C@H](C(=O)N[C@@H](CCCNC(=N)N)C(=O)N1CCC[C@H]1C(=O)N[C@@H](CC(C)C)C(=O)N[C@@H](CCCNC(=N)N)C(=O)N[C@@H](C)C(N)=O)[C@@H](C)O)C(C)C [C18-s2(r1-8), C18-VMTRPLRA] (Stearoyl-VMTRPLRA-NH2)",226,93,,,

# Reference: patent publication US8299214B2 (priority 2006, dated 2012)
